Data from patent publication US10363253B2, “Combination products for the treatment of RSV” (priority 2016, dated 2019).
Several values for one entry are separate records, joined by “and”; a condition that tells them apart may be missing. Equal entries are not always repeated. Where two headings read alike, the source gives them in different places.

Test system: rgRSV224, an engineered RSV strain that encodes for eGFP
Type: cell-based
Procedure: To evaluate their combined antiviral effect against RSV, in vitro combination studies were performed with JNJ-53718678 (“compound A”) and various compounds with different mechanisms-of-action (“compound B”). In short, 9 concentrations of Compound A were combined with 6 or 7 concentrations of a certain compound B. HeLa cells were infected with rgRSV224, an engineered RSV strain that encodes for eGFP (Hallak L K, Spillmann D, Collins P L, Peeples M E. Glycosaminoglycan sulfation requirements for respiratory syncytial virus infection; Journal of Virology (2000), 74(22), 10508-13), in the presence of various concentrations of compound A and compound B individually or in combination.
Compound stock solutions were 5 mM in 100% DMSO, with following exceptions: ribavirin, 20 mM; A 60444, 10 mM; CR9501, 141 μM in PBS; palivizumab, 156 μM in PBS; MDT 637, 100 μM in methanol. First, the compounds were serially diluted in 3-fold dilution series in DMSO; CR9501 and palivizumab were serially diluted in cell culture medium, and MDT 637 in methanol. The concentration series were diluted 100-fold in cell culture medium to achieve a combination matrix. 10 μL of these compound solutions were transferred to black 384-well clear-bottom tissue-culture treated plates. Next, 10 μL of a […] HeLa cell suspension was added to achieve 3000 cells per well. Finally, 10 μL of diluted virus stock was added to achieve an MOI of 1. The final DMSO concentration of all wells was 0.5% DMSO, except for the MDT 637 experiment where it was 0.25% DMSO+0.25% methanol. Each combination of compound concentrations was tested in 4 replicates on 3 separate plates, resulting in a total of 12 replicates. The plates were incubated for 3 days at 37° C. in a humidified atmosphere at 5% CO2. The GFP signal was measured with PerkinElmer EnVision apparatus using a 405 nm filter.
The method of Harbron (Statistics in Medicine, 2010, DOI:10.1002/sim3916) was used to assess synergy. Using the Loewe definition, two compounds are characterized as being additive, synergistic or antagonistic by:
where d1 and d2 represent the doses of the two compounds that in combination produce an effect y, and Dy,1 and Dy,2 represent the doses of the two compounds that produce the same effect, y, when administered as a monotherapy. A 3PL model (3-parameter log-logistic model) was used for the monotherapy dose-response data, where the baseline response was fixed at one.
Following Harbron's approach, the following models were fitted to the data: • “Additive”: assuming no interaction between the two compounds • “Uniform”: assuming a constant interaction index τ across all dose combinations • “Linear A”: assuming the interaction index linearly depends on the log 10 dose of compound A: z=τ1+τ2 log 10(dA) • “Separate A”: assuming the interaction index τ takes a separate value for each dose of compound A The latter two models were also considered for compound B: • “Linear B”: assuming the interaction index linearly τ depends on the log 10 dose of compound B: τ=τ1+τ2 log 10(dB) • “Separate B”: assuming the interaction index τ takes a separate value for each dose of compound B

NC(=O)c1ncn([C@@H]2O[C@H](CO)[C@@H](O)[C@H]2O)n1 [ribavirin, 1-β-D-ribofuranosyl-1H-1,2,4-triazole-3-carboxamide, reference compound]
normalized GFP signal (A = 0, B (ribavirin) = 69): 1.00 | normalized GFP signal (A = 0, B (ribavirin) = 206): 0.98 | normalized GFP signal (A = 0, B (ribavirin) = 617): 0.98 | normalized GFP signal (A = 0, B (ribavirin) = 1852): 0.97 | normalized GFP signal (A = 0, B (ribavirin) = 5556): 0.94 | normalized GFP signal (A = 0, B (ribavirin) = 16667): 0.83 | normalized GFP signal (A = 0, B (ribavirin) = 50000): 0.13

O=C(Nc1ccccc1F)N[C@H]1N=C(c2ccccc2)c2ccccc2NC1=O [Compound A-60444, (S)-1-(2-fluorophenyl)-3-(2-oxo-5-phenyl-2,3-dihydro-1H-benzo[e][1,4]diazepin-3-yl) urea, reference compound]
normalized GFP signal (A = 0, B (A-60444) = 34): 1.00 | normalized GFP signal (A = 0, B (A-60444) = 103): 1.00 | normalized GFP signal (A = 0, B (A-60444) = 309): 0.96 | normalized GFP signal (A = 0, B (A-60444) = 926): 0.93 | normalized GFP signal (A = 0, B (A-60444) = 2778): 0.93 | normalized GFP signal (A = 0, B (A-60444) = 8333): 0.75 | normalized GFP signal (A = 0, B (A-60444) = 25000): 0.39

Cc1nnnn1/N=C/c1ccc(O)c(C(c2ccc(O)cc2)c2cc(/C=N/n3nnnc3C)ccc2O)c1 [MDT-637, reference compound]
normalized GFP signal: 0.99 and 0.95 | normalized GFP signal (A = 0, B (MDT-637) = 0.038): 1.01 | normalized GFP signal (A = 0, B (MDT-637) = 1): 0.93 | normalized GFP signal (A = 0, B (MDT-637) = 3.1): 0.75 | normalized GFP signal (A = 0, B (MDT-637) = 9.3): 0.14 | normalized GFP signal (A = 0, B (MDT-637) = 28): 0.01

O=C(NC1CC1)c1cc2c(s1)-c1ccccc1N(C(=O)c1ccc(NC(=O)c3cccnc3N3CCC4(CC3)COC4)cc1)CC2 [AZ-27, N-cyclopropyl-5,6-dihydro-6-[4-[[[2-(2-oxa-7-azaspiro [3.5]non-7-yl)-3-pyridinyl]carbonyl]-amino]benzoyl]-4H-thieno [3,2-d][1]benzazepine-2-carboxamide, reference compound]
normalized GFP signal (A = 0, B (AZ-27) = 17): 1.03 | normalized GFP signal (A = 0, B (AZ-27) = 51): 1.00 | normalized GFP signal (A = 0, B (AZ-27) = 154): 0.53 | normalized GFP signal (A = 0, B (AZ-27) = 463): 0.07 | normalized GFP signal (A = 0, B (AZ-27) = 1389): 0.01 | normalized GFP signal (A = 0, B (AZ-27) = 4167): 0.00
